Data as given in patent US11478440B2, “Combination of Elafibranor or derivatives thereof with an anti-NASH, anti-fibrotic or anti-cholestatic agent” (GENFIT, priority 2017, dated 2022).

Tested on: TGFβ1-induced hHSC
Assay: α-SMA ELISA in TGFβ1-induced human primary hepatic stellate cells
Type: cell-based
Procedure: (§1) The human primary hepatic stellate cells (hHSC) (Innoprot) were cultured in STeCM medium (ScienCell cat #5301) that was supplemented with 2% fetal bovine serum (FBS, ScienCell cat #0010), 1% penicillin/streptomycin (ScienCell cat #0503) and stellate cell growth supplement (SteCGS; ScienCell cat #5352). Cell culture flasks were coated with Poly-L Lysine (Sigma cat #P4707) for a better adherence.
For these experiments, a checkerboard matrix was generated. ELA and component (ii) stocks were serially diluted in DMSO in 5-points series in a row (ELA) and a 11-points series in a column (component (ii)) of a 96-well plate. Subsequently, the 5×11 combination matrix was generated by 1:1 mixing of all single agent concentrations. The test concentrations for each compound were chosen based on the respective IC50 of each compound as single agent obtained by measuring α-SMA content in the HSC model stimulated with TGF-β1.
The human primary hepatic stellate cells (hHSC) (Innoprot) were cultured under standard conditions, as described above. The cells were subsequently plated at a density of 2×10^4 cells/well into 96-well plates for the measure of α-SMA by ELISA. The next day, cell-culture medium was removed, and cells were washed with PBS (Invitrogen cat #14190). hHSC were deprived for 24 hours in serum-free and SteCGS-free medium. For the treatments with ELA, component (ii) and the respective ELA/component (ii) combinations, the serum-deprived hHSC were preincubated for 1 hour with the compounds followed by addition of the profibrogenic stimuli TGF-β1 (PeproTech cat #100-21, 1 ng/mL) in serum-free and SteCGS-free medium for an additional 48 hour period.
The level of α-SMA was measured using a Sandwich ELISA. Briefly, the wells of an ELISA plate were first coated with the capture antibody (mouse monoclonal anti-ACTA2, Abnova) at 4° C. overnight. After 3 washes in PBS+0.2% Tween 20, a blocking solution consisting of PBS+0.2% BSA was added for one hour followed by another washing cycle. The cell lysates were transferred into the wells for binding to the capture antibody for a period of 2 h at room temperature. After the washing procedure, the detection antibody (biotinylated mouse monoclonal anti-ACTA2, Abnova) was added for 2 hours at room temperature followed by 3 washes. For the detection, an HRP-conjugated Streptavidin (R&D Systems cat #DY998) was first applied for 30 min at room temperature. After washing, the HRP substrate TMB (BD, #555214) was added and incubated for 7 min at room temperature in the dark. Upon oxidation, TMB forms a water-soluble blue reaction product that becomes yellow with addition of sulfuric acid (solution stop), enabling accurate measurement of the intensity at 450 nm using a spectrophotometer. The developed color is directly proportional to the amount of α-SMA present in the lysate.
as §1, with “Cell-culture” for “Cell culture”
For these experiments, a checkerboard matrix was generated. CVC and Elafibranor stocks were serially diluted in DMSO in a 5-points series in a row (Elafibranor) and a 6-points series in a column (Cenicriviroc) of a 96-well plate. Subsequently, the […] combination matrix was generated by 1:1 mixing of all single agent concentrations. The test concentrations for each compound were chosen based on the respective IC50 of each compound as single agent obtained by measuring α-SMA content in the HSC model stimulated with TGF-β1.
The human primary hepatic stellate cells (hHSC) (Innoprot) were cultured under standard conditions, as described above. […]

1-[4-methylthiophenyl]-3-[3,5-dimethyl-4-carboxydimethylmethyloxyphenyl]prop-2-en-1-one [Elafibranor]
α-SMA inhibition over TGFβ1 control (5 μM of Elafibranor alone): 40% | IC50 (TGFβ1 1 ng/ml, 48 h, single agent): 3.17 µM | α-SMA marker reduction (TGFβ1 1 ng/ml, 48 h, single agent, maximal reduction): 80% | antifibrotic activity (α-SMA), single agent (TGFβ1-activated hHSC, dose range): has an antifibrotic activity
